Activity calls are given as the source filed them. No cut-off for these calls is given here.
What was measured:
LNCaP [1] = test: Induction of apoptosis in human LNCaP cells assessed as early apoptotic cells at […] incubated for 72 hrs by annexin V/PI double staining based flow cytometry method (reference value: […]); assay type: functional
[2] = Tmax in Sprague-Dawley rat at 10 mg/kg, ig by UPLC-MS/MS analysis; assay type: ADME, organism-based; details: in vivo, po, time < 24 hrs
[3] = biological target: Protein kinase C alpha type (Homo sapiens) (UniProt P17252); test: Inhibition of PKCalpha (unknown origin) at 1 uM in presence of ATP at Km concentration by mobility shift assay relative to control
[4] = Cmax in NCG mouse xenografted with human LNCaP cells at 25 mg/kg administered once daily for 18 to 21 days and measured upto 10 hrs post last dose by LC-MS/MS analysis; assay type: ADME, organism-based; parameters: time upper 21 day, time lower 18 day, dose 25 mg/kg; details: in vivo
LNCaP [5] = test: In vivo inhibition of AKT in human LNCaP cells xenografted in NCG mouse assessed as reduction in PRAS40 phosphorylation at 50 mg/kg administered for 21 days and measured after 4 hrs post last dose by Western blot analysis; assay type: functional, organism-based; details: time 21.0 day
[6] = Metabolic stability in Crab eating monkey liver microsomes assessed as intrinsic clearance at 1 uM measured after 60 mins by LC-MS/MS analysis; assay type: ADME, Macaca fascicularis, Microsome; details: cynomolgus monkey, 1 h
[7] = Metabolic stability in Sprague-Dawley rat liver microsomes assessed as parent compound remaining at 1 uM measured after 60 mins by UPLC-MS/MS analysis; assay type: ADME, Microsome; details: read-out: Stability
[8] = AUC (0 to infinity) in Sprague-Dawley rat at 5 mg/kg, iv measured upto 24 hrs by UPLC-MS/MS analysis; assay type: ADME, organism-based; parameters: dose 5 mg/kg, time < 24 hrs, route iv; details: in vivo
LNCaP [9] = test: Induction of apoptosis in human LNCaP cells assessed as apoptotic cells at […] incubated for 72 hrs by annexin V/PI double staining based flow cytometry method (reference value: 3.95 %); assay type: functional; details: dose 2.5 µM
LNCaP [10] = test: Induction of cell cycle arrest in human LNCap cells assessed as accumulation at G0/G1 phase at 0.2 uM incubated for 24 hrs by flow cytometry (reference value: 58.60 %); assay type: functional
[11] = AUC (0 to t) in Sprague-Dawley rat at 10 mg/kg, ig by UPLC-MS/MS analysis; assay type: ADME, organism-based; parameters: dose 10 mg/kg, route ig; details: in vivo, po
LNCaP [12] = test: Antitumor activity against human LNCaP cells xenografted in NCG mouse assessed as tumor growth inhibition at 25 mg/kg administered once daily for 18 to 21 days relative to control; assay type: functional; details: time 18-21 day, read-out: TGI
[13] = Metabolic stability in CD-1 mouse liver microsomes assessed hepatic clearance at 1 uM measured after 60 mins by LC-MS/MS analysis; assay type: ADME, Microsome; details: 1 h
[14] = AUC (0 to infinity) in crab-eating monkey at 6 mg/kg, ig by UPLC-MS/MS analysis; assay type: ADME, organism-based, Macaca fascicularis; parameters: time infinity, dose 6 mg/kg, route ig; details: cynomolgus monkey, in vivo, po
LNCaP [15] = test: Induction of apoptosis in human LNCaP cells assessed as viable cells at 1.25 uM incubated for 72 hrs by annexin V/PI double staining based flow cytometry method (reference value: 93.63 %); assay type: functional; details: read-out: Activity
[16] = Metabolic stability in Sprague-Dawley rat liver microsomes assessed as half life at 1 uM measured after 60 mins by LC-MS/MS analysis; assay type: ADME, Microsome
[17] = Metabolic stability in CD-1 mouse liver microsomes assessed as parent compound remaining at 1 uM measured after 60 mins by UPLC-MS/MS analysis; assay type: ADME, Microsome; details: read-out: Stability
[18] = Metabolic stability in Crab eating monkey liver microsomes assessed as parent compound remaining at 1 uM measured after 60 mins by UPLC-MS/MS analysis; assay type: ADME, Macaca fascicularis, Microsome; details: cynomolgus monkey, read-out: Stability
[19] = Metabolic stability in Sprague-Dawley rat liver microsomes assessed hepatic clearance at 1 uM measured after 60 mins by LC-MS/MS analysis; assay type: ADME, Microsome; details: 1 h
LNCaP [20] = test: Induction of apoptosis in human LNCaP cells assessed as necrotic cells at 1.25 uM incubated for 72 hrs by annexin V/PI double staining based flow cytometry method (reference value: 2.41%); assay type: functional
LNCaP [21] = test: In vivo inhibition of AKT in human LNCaP cells xenografted in NCG mouse assessed as reduction in GSK-3beta phosphorylation at 25 to 50 mg/kg administered for 21 days and measured after 4 hrs post last dose by Western blot analysis; assay type: functional, organism-based; details: dose lower […], dose upper 50.0 mg/kg, time 21.0 day
[22] = Tmax in NCG mouse xenografted with human LNCaP cells at 25 mg/kg administered once daily for 18 to 21 days and measured upto 10 hrs post last dose by LC-MS/MS analysis; assay type: ADME, organism-based; details: in vivo, time 18-21 day
[23] = Metabolic stability in Beagle dog liver microsomes assessed as intrinsic clearance at 1 uM measured after 60 mins by LC-MS/MS analysis; assay type: ADME, Canis lupus familiaris, Microsome; details: 1 h
[24] = Tmax in NCG mouse xenografted with human LNCaP cells at 50 mg/kg administered once daily for 18 to 21 days and measured upto 10 hrs post last dose by LC-MS/MS analysis; assay type: ADME, organism-based; details: in vivo, time 18-21 day
[25] = Apparent volume of distribution at steady state in Sprague-Dawley rat at 5 mg/kg, iv measured upto 24 hrs by UPLC-MS/MS analysis; assay type: ADME, organism-based; details: in vivo, read-out: Vdss(app)
[26] = AUC (0 to t) in Sprague-Dawley rat at 5 mg/kg, iv measured upto 24 hrs by UPLC-MS/MS analysis; assay type: ADME, organism-based; parameters: time < 24 hrs, dose 5 mg/kg, route iv; details: in vivo
LNCaP [27] = test: Induction of cell cycle arrest in human LNCap cells assessed as decrease in accumulation at S phase at 0.04 to 1 uM incubated for 24 hrs by flow cytometry; assay type: functional, cell-based; details: dose 0.04-1 µM
[28] = Toxicity in NCG mouse xenografted with human LNCaP cells assessed as tolerability at 12.5 to 50 mg/kg administered for 18 days; assay type: organism-based; details: in vivo, 432 h, dose 12.5-50 mg/kg, time 18 day
[29] = AUC (0 to t) in NCG mouse xenografted with human LNCaP cells at 12.5 mg/kg administered daily once for 18 to 21 days and measured upto 10 hrs post last dose by LC-MS/MS analysis; assay type: ADME, organism-based; details: in vivo
[30] = biological target: Ribosomal protein S6 kinase alpha-4 (Homo sapiens) (UniProt O75676); test: Inhibition of MSK2 (unknown origin) at 1 uM in presence of ATP at Km concentration by mobility shift assay relative to control
[31] = Metabolic stability in CD-1 mouse liver microsomes assessed as half life at 1 uM measured after 60 mins by LC-MS/MS analysis; assay type: ADME, Microsome
[32] = AUC (0 to t) in NCG mouse xenografted with human LNCaP cells at 50 mg/kg administered daily once for 18 to 21 days and measured upto 10 hrs post last dose by LC-MS/MS analysis; assay type: ADME, organism-based; parameters: dose 50 mg/kg, time 18-21 day; details: in vivo
LNCaP [33] = test: Induction of apoptosis in human LNCaP cells assessed as late apoptotic cells at […] incubated for 72 hrs by annexin V/PI double staining based flow cytometry method (reference value: 2.75 %); assay type: functional
LNCaP [34] = test: Induction of apoptosis in human LNCap cells assessed as necrotic cells incubated for 72 hrs by annexin V/PI double staining based flow cytometry method; assay type: functional, cell-based; details: dose 0.62-2.5 µM, DDE = dose-dependent effect
[35] = Cmax in Sprague-Dawley rat at 5 mg/kg, iv measured upto 24 hrs by UPLC-MS/MS analysis; assay type: ADME, organism-based; parameters: dose 5 mg/kg, time < 24 hrs, route iv; details: in vivo

Chain of Ribosomal protein S6 kinase alpha-4 (Homo sapiens) (O75676 whole entry, looked up): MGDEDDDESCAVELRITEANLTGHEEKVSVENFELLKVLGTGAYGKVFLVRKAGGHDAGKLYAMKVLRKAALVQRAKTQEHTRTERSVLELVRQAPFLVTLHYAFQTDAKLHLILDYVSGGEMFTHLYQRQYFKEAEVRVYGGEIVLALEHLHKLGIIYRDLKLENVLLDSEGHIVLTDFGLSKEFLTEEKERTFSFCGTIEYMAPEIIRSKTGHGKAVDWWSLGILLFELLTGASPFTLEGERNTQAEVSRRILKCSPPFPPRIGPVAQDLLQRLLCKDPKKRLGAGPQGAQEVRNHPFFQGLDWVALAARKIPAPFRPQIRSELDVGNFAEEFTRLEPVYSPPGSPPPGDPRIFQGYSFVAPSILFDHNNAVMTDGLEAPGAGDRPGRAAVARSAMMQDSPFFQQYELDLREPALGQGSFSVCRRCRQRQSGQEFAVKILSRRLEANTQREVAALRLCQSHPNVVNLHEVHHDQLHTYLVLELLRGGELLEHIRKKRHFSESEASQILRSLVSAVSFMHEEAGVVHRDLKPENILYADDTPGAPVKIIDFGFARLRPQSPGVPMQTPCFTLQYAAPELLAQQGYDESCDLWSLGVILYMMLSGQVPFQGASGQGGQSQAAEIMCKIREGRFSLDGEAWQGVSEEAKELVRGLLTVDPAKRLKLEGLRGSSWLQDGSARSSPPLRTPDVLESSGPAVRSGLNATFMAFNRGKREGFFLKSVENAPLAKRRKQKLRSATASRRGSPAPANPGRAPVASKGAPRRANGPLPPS

Work on `CC(C)NC[C@@H](C(=O)N1CCN(c2ncnc3c2[C@H](C)CC(=O)N3)[C@H]2C[C@H]21)c1ccc(Cl)cc1` yielded an Activity (LNCaP [1]; dose 0.62 µM) of 6.55%, an Activity (LNCaP [1]; dose 2.5 µM) of 22.54% and a Tmax [2] of 2 h. For the same compound, the inhibition [3] was 90%, the Cmax [4] was 1980 ng/mL and the Activity (LNCaP [5]) was “Active”. The CLH [6] was 2.94 mL/h/kg, the remaining at 1 h, 1 µM [7] was 88.8% and the AUC(0-inf) [8] was 1800 ng·h/mL. It also gave an Activity (LNCaP [9]) of 38.97%, an Activity (LNCaP [10]) of 82.42% and an AUC(0-t) [11] of 3880 ng·h/mL. The inhibition in vivo at 25 mg/kg (LNCaP [12]) was 95.5%, the CLH [13] was less than 0.762 mL/h/kg and the AUC(0-inf) [14] was 1680 ng·h/mL. The viability at 1.25 µM (LNCaP [15]) was 69.8%, the half-life at 1 µM [16] was greater than 3.82 h and the remaining at 1 h, 1 µM [17] was 92.3%. It also gave a remaining at 1 h, 1 µM [18] of 23.1%, a CLH [19] of less than 732 mL/h/kg and an Activity (LNCaP [20]) of 4.92%. The Activity (LNCaP [21]) was “Active”, the Tmax [22] was 4 h and the CLH [23] was 1.26 mL/h/kg. It also gave a Tmax [24] of 1 h, a Vd [25] of 7.76 L/kg and an AUC(0-t) at 24 h [26] of 1760 ng·h/mL. For the same compound, the Activity (LNCaP [27]) was “Active”, the Activity [28] was “Non-Toxic” and the AUC(0-t) [29] was 7030 ng·h/mL. For the same compound, the inhibition [30] was 90%, the half-life at 1 µM [31] was greater than 6.45 h and the AUC(0-t) [32] was 22000 ng·h/mL. For the same compound, the Activity (LNCaP [33]; dose 0.62 µM) was 9.01%, the Activity (LNCaP [33]; dose 2.5 µM) was 16.43% and the Activity (LNCaP [34]) was “Dde”. For the same compound, the Cmax [35] was 1690 ng/mL.

Source: ChEMBL document CHEMBL5154942, “Discovery of Clinical Candidate NTQ1062 as a Potent and Bioavailable Akt Inhibitor for the Treatment of Human Tumors” (J Med Chem, 2022)
